Measured values from ChEMBL document CHEMBL6078622, “Enhancing outer membrane permeability of tetracycline antibiotics in P. aeruginosa using TOB-CIP conjugates” (RSC Med Chem, 2024).
The source made the active and inactive calls. No cut-off for these calls is given here.

Experiments:
[1] = system: Pseudomonas aeruginosa; experiment: Synergistic antibacterial activity against Pseudomonas aeruginosa PA259 assessed as fold change in minocycline MIC by CLSI based broth-microdilution method relative to minocycline alone; type: functional
[2] = system: Pseudomonas aeruginosa; experiment: Antibacterial activity against Pseudomonas aeruginosa PA200 assessed as eravacycline MIC by CLSI based broth-microdilution method; type: functional
[3] = system: Pseudomonas aeruginosa; experiment: Antibacterial activity against Pseudomonas aeruginosa PA101243 assessed as doxycycline MIC by CLSI based broth-microdilution method; type: functional
[4] = system: Pseudomonas aeruginosa; experiment: Synergistic antibacterial activity against Pseudomonas aeruginosa PA095 assessed as fold change in doxycycline MIC by CLSI based broth-microdilution method relative to doxycycline alone; type: functional
[5] = system: Pseudomonas aeruginosa; experiment: Synergistic antibacterial activity against Pseudomonas aeruginosa PA200 assessed as fold change in minocycline MIC by CLSI based broth-microdilution method relative to minocycline alone; type: functional
[6] = system: Pseudomonas aeruginosa; experiment: Synergistic antibacterial activity against Pseudomonas aeruginosa PA101243 assessed as fractional inhibitory concentration index in presence of tigecycline by checkerboard assay; type: functional
[7] = system: Pseudomonas aeruginosa; experiment: Antibacterial activity against Pseudomonas aeruginosa PA259 assessed as increase in bacterial load in presence of eravacycline by time kill assay; type: functional, organism-based
[8] = system: Pseudomonas aeruginosa; experiment: Antibacterial activity against Pseudomonas aeruginosa PA095 assessed as inhibition of visible bacterial growth by CLSI based broth-microdilution method; type: functional
[9] = system: Pseudomonas aeruginosa; experiment: Synergistic antibacterial activity against Pseudomonas aeruginosa PA101243 in presence of eravacycline by checkerboard assay; type: functional
[10] = system: Pseudomonas aeruginosa; experiment: Synergistic antibacterial activity against Pseudomonas aeruginosa PA100036 assessed as fold change in doxycycline MIC by CLSI based broth-microdilution method relative to doxycycline alone; type: functional
[11] = system: Pseudomonas aeruginosa; experiment: Synergistic antibacterial activity against Pseudomonas aeruginosa PA259 in presence of doxycycline by checkerboard assay; type: functional
[12] = system: Pseudomonas aeruginosa; experiment: Synergistic antibacterial activity against Pseudomonas aeruginosa PA200 assessed as fold change in tigecycline MIC by CLSI based broth-microdilution method relative to tigecycline alone; type: functional
[13] = system: Pseudomonas aeruginosa; experiment: Antibacterial activity against Pseudomonas aeruginosa PA264 assessed as minocycline MIC by CLSI based broth-microdilution method; type: functional
[14] = system: Pseudomonas aeruginosa; experiment: Synergistic antibacterial activity against Pseudomonas aeruginosa PA114228 assessed as fold change in minocycline MIC by CLSI based broth-microdilution method relative to minocycline alone; type: functional
[15] = system: HepG2; experiment: Cytotoxicity against human HepG2 cells assessed as inhibition of cell vitality at 162 uM; type: functional; set-up: scale not given: the % may be the effect or the level left
[16] = system: Pseudomonas aeruginosa; experiment: Antibacterial activity against Pseudomonas aeruginosa PA264 assessed as inhibition of visible bacterial growth by CLSI based broth-microdilution method; type: functional
[17] = system: Pseudomonas aeruginosa; experiment: Antibacterial activity against Pseudomonas aeruginosa PA259 assessed as eravacycline MIC by CLSI based broth-microdilution method; type: functional
[18] = system: Pseudomonas aeruginosa; experiment: Antibacterial activity against Pseudomonas aeruginosa PA100036 assessed as eravacycline MIC by CLSI based broth-microdilution method; type: functional
[19] = system: Pseudomonas aeruginosa; experiment: Synergistic antibacterial activity against Pseudomonas aeruginosa PA114228 assessed as fractional inhibitory concentration index in presence of doxycycline by checkerboard assay; type: functional
[20] = system: Pseudomonas aeruginosa; experiment: Synergistic antibacterial activity against Pseudomonas aeruginosa PA095 assessed as fractional inhibitory concentration index in presence of minocycline by checkerboard assay; type: functional
[21] = system: Pseudomonas aeruginosa; experiment: Synergistic antibacterial activity against Pseudomonas aeruginosa PA101243 in presence of tigecycline by checkerboard assay; type: functional
[22] = system: Pseudomonas aeruginosa; experiment: Synergistic antibacterial activity against Pseudomonas aeruginosa PA100036 assessed as fractional inhibitory concentration index in presence of doxycycline by checkerboard assay; type: functional
[23] = system: Pseudomonas aeruginosa; experiment: Synergistic antibacterial activity against Pseudomonas aeruginosa PA262 in presence of doxycycline by checkerboard assay; type: functional
[24] = system: Pseudomonas aeruginosa; experiment: Synergistic antibacterial activity against Pseudomonas aeruginosa PA259 assessed as fold change in tigecycline MIC by CLSI based broth-microdilution method relative to tigecycline alone; type: functional
[25] = system: Pseudomonas aeruginosa; experiment: Synergistic antibacterial activity against Pseudomonas aeruginosa PA259 in presence of tigecycline by checkerboard assay; type: functional
[26] = system: Pseudomonas aeruginosa; experiment: Synergistic antibacterial activity against Pseudomonas aeruginosa PA259 assessed as fractional inhibitory concentration index in presence of minocycline by checkerboard assay; type: functional
[27] = system: Pseudomonas aeruginosa; experiment: Antibacterial activity against Pseudomonas aeruginosa PA101243 assessed as tigecycline MIC by CLSI based broth-microdilution method; type: functional
[28] = system: Pseudomonas aeruginosa; experiment: Synergistic antibacterial activity against Pseudomonas aeruginosa PA259 assessed as fractional inhibitory concentration index in presence of eravacycline by checkerboard assay; type: functional
[29] = system: Pseudomonas aeruginosa; experiment: Antibacterial activity against Pseudomonas aeruginosa PA262 assessed as inhibition of visible bacterial growth by CLSI based broth-microdilution method; type: functional
[30] = system: Pseudomonas aeruginosa; experiment: Antibacterial activity against Pseudomonas aeruginosa PA264 assessed as eravacycline MIC by CLSI based broth-microdilution method; type: functional
[31] = system: Pseudomonas aeruginosa; experiment: Synergistic antibacterial activity against Pseudomonas aeruginosa PA264 assessed as fold change in tigecycline MIC by CLSI based broth-microdilution method relative to tigecycline alone; type: functional
[32] = system: Pseudomonas aeruginosa; experiment: Synergistic antibacterial activity against Pseudomonas aeruginosa PA100036 assessed as fractional inhibitory concentration index in presence of minocycline by checkerboard assay; type: functional
[33] = system: Pseudomonas aeruginosa; experiment: Synergistic antibacterial activity against Pseudomonas aeruginosa PA200 assessed as fractional inhibitory concentration index in presence of tigecycline by checkerboard assay; type: functional
[34] = system: Pseudomonas aeruginosa; experiment: Synergistic antibacterial activity against Pseudomonas aeruginosa PA101243 assessed as fold change in minocycline MIC by CLSI based broth-microdilution method relative to minocycline alone; type: functional
[35] = system: Pseudomonas aeruginosa; experiment: Synergistic antibacterial activity against Pseudomonas aeruginosa PA259 assessed as fractional inhibitory concentration index in presence of doxycycline by checkerboard assay; type: functional
[36] = system: Pseudomonas aeruginosa; experiment: Antibacterial activity against Pseudomonas aeruginosa PA114228 assessed as doxycycline MIC by CLSI based broth-microdilution method; type: functional
[37] = system: Pseudomonas aeruginosa; experiment: Synergistic antibacterial activity against Pseudomonas aeruginosa PA114228 assessed as fractional inhibitory concentration index in presence of tigecycline by checkerboard assay; type: functional
[38] = system: Pseudomonas aeruginosa; experiment: Synergistic antibacterial activity against Pseudomonas aeruginosa PA114228 assessed as fold change in doxycycline MIC by CLSI based broth-microdilution method relative to doxycycline alone; type: functional
[39] = system: Pseudomonas aeruginosa; experiment: Antibacterial activity against Pseudomonas aeruginosa PAO1 assessed as inhibition of bacterial growth by measuring fold change in MIC in presence of 50 % fetal bovine serum by CLSI protocol based assay; type: functional
[40] = system: Pseudomonas aeruginosa; experiment: Synergistic antibacterial activity against Pseudomonas aeruginosa PA200 in presence of eravacycline by checkerboard assay; type: functional
[41] = system: Pseudomonas aeruginosa; experiment: Antibacterial activity against Pseudomonas aeruginosa PA259 assessed as minocycline MIC by CLSI based broth-microdilution method; type: functional
[42] = system: Pseudomonas aeruginosa; experiment: Synergistic antibacterial activity against Pseudomonas aeruginosa PA095 in presence of tigecycline by checkerboard assay; type: functional
[43] = system: Pseudomonas aeruginosa; experiment: Antibacterial activity against Pseudomonas aeruginosa PA259 assessed as doxycycline MIC by CLSI based broth-microdilution method; type: functional
[44] = system: Pseudomonas aeruginosa; experiment: Synergistic antibacterial activity against Pseudomonas aeruginosa PA095 assessed as fractional inhibitory concentration index in presence of eravacycline by checkerboard assay; type: functional
[45] = system: Pseudomonas aeruginosa; experiment: Synergistic antibacterial activity against Pseudomonas aeruginosa PA100036 in presence of eravacycline by checkerboard assay; type: functional
[46] = system: HepG2; experiment: Cytotoxicity against human HepG2 cells assessed as reduction in cell viability at 400 uM; type: functional, cell-based

Cl.Cl.Cl.Cl.Cl.Cl.NC[C@H]1O[C@H](O[C@H]2[C@H](OCCCCCCCCCCCCNC(=O)c3cn(C4CC4)c4cc(N5CCNCC5)c(F)cc4c3=O)[C@@H](O[C@H]3O[C@H](CO)[C@@H](O)[C@H](N)[C@H]3O)[C@H](N)C[C@@H]2N)[C@H](N)C[C@@H]1O
fold change (FC) [1]: 512
MIC [2]: 0.031 µg/mL
MIC [3]: 1 µg/mL
fold change (FC) [4]: 16
fold change (FC) [5]: 64
fractional inhibitory concentration index (FICI) [6]: 0.125
Activity [7]: Active
MIC [8]: 8 µg/mL
MIC [9]: 8 µg/mL
fold change (FC) [10]: 128
MIC [11]: 8 µg/mL
fold change (FC) [12]: 16
MIC [13]: 0.5 µg/mL
fold change (FC) [14]: 512
Activity [15]: 40%
MIC [16]: > 128 µg/mL
MIC [17]: 0.062 µg/mL
MIC [18]: 0.125 µg/mL
fractional inhibitory concentration index (FICI) [19]: 0.004
fractional inhibitory concentration index (FICI) [20]: 0.5
MIC [21]: 8 µg/mL
fractional inhibitory concentration index (FICI) [22]: 0.004
MIC [23]: 8 µg/mL
fold change (FC) [24]: 128
MIC [25]: 8 µg/mL
fractional inhibitory concentration index (FICI) [26]: 0.002
MIC [27]: 4 µg/mL
fractional inhibitory concentration index (FICI) [28]: 0.008
MIC [29]: > 128 µg/mL
MIC [30]: 0.125 µg/mL
fold change (FC) [31]: 32
fractional inhibitory concentration index (FICI) [32]: 0.015
fractional inhibitory concentration index (FICI) [33]: 0.187
fold change (FC) [34]: 4
fractional inhibitory concentration index (FICI) [35]: 0.008
MIC [36]: 32 µg/mL
fractional inhibitory concentration index (FICI) [37]: 0.25
fold change (FC) [38]: 128
fold change (FC) [39]: 1
MIC [40]: 8 µg/mL
MIC [41]: 0.25 µg/mL
MIC [42]: 2 µg/mL
MIC [43]: 0.5 µg/mL
fractional inhibitory concentration index (FICI) [44]: 0.265
MIC [45]: 8 µg/mL
Activity [46]: Active
